Results on 1 compound are retold here after PMC3046181, “Elimination of Endogenous Toxin, Creatinine from Blood Plasma Depends on Albumin Conformation: Site Specific Uremic Toxicity & Impaired Drug Binding” (PLoS ONE, 2011).

This experiment concerns the target T1, Human serum albumin (HSA) (Homo sapiens, UniProt P02768).
T1 construct: gene ALB; commercial native serum albumin (Sigma), essentially fatty acid free and globulin free; monomer
The experiment in a line: isothermal titration calorimetry, single set of identical sites. Type of experiment: binding. Particulars: read-out: Ka[M^-1] / ITC ^a (converted). An excerpt: isothermal titration calorimetry, single set of identical sites on Human serum albumin (HSA)

T1 sequence (P02768 25-609): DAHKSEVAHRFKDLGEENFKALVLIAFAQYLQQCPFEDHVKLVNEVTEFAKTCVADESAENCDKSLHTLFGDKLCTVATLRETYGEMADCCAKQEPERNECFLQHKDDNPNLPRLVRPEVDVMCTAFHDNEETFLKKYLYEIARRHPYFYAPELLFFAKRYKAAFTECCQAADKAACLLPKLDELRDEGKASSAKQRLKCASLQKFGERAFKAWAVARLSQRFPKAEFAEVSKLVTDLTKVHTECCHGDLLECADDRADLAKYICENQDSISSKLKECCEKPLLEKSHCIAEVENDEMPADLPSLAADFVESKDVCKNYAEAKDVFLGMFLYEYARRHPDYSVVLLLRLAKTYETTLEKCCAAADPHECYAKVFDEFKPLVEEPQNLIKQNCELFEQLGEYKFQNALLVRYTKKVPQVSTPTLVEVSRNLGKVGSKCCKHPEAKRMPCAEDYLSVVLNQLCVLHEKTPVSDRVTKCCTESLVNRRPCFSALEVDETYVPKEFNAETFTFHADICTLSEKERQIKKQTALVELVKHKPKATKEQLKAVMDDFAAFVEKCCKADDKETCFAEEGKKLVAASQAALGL

With `CN1CC(=O)NC1=N` [creatinine, 2-Amino-1-methyl-5H-imidazol-4-one], the Kd was 11.2 µM.
